According to patent publication US4678775A, “Method of controlling pests” (priority 1984, dated 1987):
Read-outs that look alike come from different tables or passages of the source. Each block holds one molecule with its values, some of them ahead of it.

Tests used:
[1] = test system: octopamine-sensitive adenylate cyclase; assay: Activation of octopamine-sensitive adenylate cyclase, firefly light organ broken cell preparation; assay type: biochemical, Photinus pyralis
[2] = test system: tobacco hornworms (Manducca sexta); assay: In vivo leaf test (antifeeding) on tomato leaves with tobacco hornworm larvae; details: for pesticidal activity: no IBMX; for Ki for inhibition of feeding by the larvae: applied to leaves; for rank order antifeeding effectiveness: based on the EC50 of the octopamine agonist, alone or +IBMX; for behaviour of larvae feeding on treated leaves: in vivo; for effect of addition of IBMX on antifeeding / pesticidal activity: with PDE inhibitor IBMX
[3] = test system: adenylate cyclase in nerve cord of tobacco hornworm; assay: Adenylate cyclase activation in broken cell preparations of tobacco hornworm nerve cord; assay type: biochemical, tobacco hornworm (Manducca sexta); details: for activation of adenylate cyclase in nerve cord: FIG. 1
Procedure: Otherwise, the procedure is identical to that described above.
The tissue is homogenized (usually 15 mg/ml) as above in 6 mM Tris maleate, pH 7.4. […] This is done to cancel out the effects of dopamine and serotonin receptors which are usually present in nerve cord.
As detailed previously, the adenylate cyclase assay, either in the firefly or in other insect pest, is also used to identify a direct stimulator of adenylate cyclase.

[4] = target: T1, Beta1 and Beta2-adrenergic-stimulated adenylate cyclase in rat liver (Rattus norvegicus, UniProt P10608); assay: Adenylate cyclase stimulation in rat liver; assay type: biochemical
T1 construct: adenylate cyclase in rat heart and liver; from tissue; host or cells: rat liver

[5] = target: T2, dopamine-sensitive adenylate cyclase in rat caudate nucleus (Rattus norvegicus, UniProt P18901); assay: Adenylate cyclase stimulation in rat caudate nucleus; assay type: biochemical
T2 construct: in the rat caudate nucleus; from tissue; host or cells: rat caudate nucleus

[6] = test system: isolated tails of Photinus males; assay: Stimulation of light production after injection into transected, isolated firefly tails; assay type: in vivo; details: injected into isolated tails
[7] = test system: cyclic AMP in intact nerve cords of tobacco hornworms; assay: Cyclic AMP content of intact tobacco hornworm nerve cords; assay type: cell-based; details: 5 minutes
Procedure: After 5 minutes, the intact nerve cord was quickly treated to release all cyclic AMP which was present within the tissue.

[8] = test system: adenylate cyclase in the firefly lantern; assay: Direct activation of adenylate cyclase in firefly lantern (forskolin); assay type: biochemical, Photinus pyralis; details: FIG. 2, firefly lantern
Description: The second type of pest controlling compounds (2) useable in the present compositions are direct stimulators of the pest enzyme adenylate cyclase. These compounds bypass the receptor, and interact with one or another of the associated catalytic or regulatory subunits of adenylate cyclase, thereby stimulating the formation of cyclic AMP. Suitable compounds can be determined from assay of pest adenylate cyclase as described above.
Specimens of Photinus pyralis were collected in summer, frozen on dry ice, and stored at -90°. […] For each experiment, a number of insects were thawed and maintained at 4° C. […]
Adenylate cyclase activation by test compounds was measured in test tubes containing (in 0.3 ml) 80 mM Tris-maleate, pH 7.4; 10 mM theophylline; 8 mM MgCl2; 0.1 mM GTP; 0.5 mM ethylene glycol bis(beta-aminoethyl ether)-N,N,N',N'-tetraacetic acid; 2 mM ATP; 0.06 ml of P2 fractions; and the various compounds to be tested. Prior experiments had determined that, under these conditions, octopamine-sensitive adenylate cyclase activity is optimized. […] Cyclic AMP in the supernatant was measured by protein-binding assay, according to the method of Brown et al., Adv. […] Protein concentration was determined by the method of Lowry et al., Journal of Biological Chemistry 193: 265-275 (1951). […]

[9] = Table 4, agonist 10^-1 gm/100 ml, No PDE Inhibitor
[10] = Table 4, agonist 10^-2 gm/100 ml, No PDE Inhibitor
[11] = Table 5, agonist 10^-2 gm/100 ml, IBMX 0.1 g/100 ml
[12] = Table 5, agonist 1 gm/100 ml, IBMX 0.1 g/100 ml
[13] = Table 5, agonist 1 gm/100 ml, No PDE Inhibitor
[14] = Table 5, agonist 10^-1 gm/100 ml, IBMX 0.1 g/100 ml
[15] = Table 5, agonist 10^-1 gm/100 ml, No PDE Inhibitor
[16] = Table 5, agonist 10^-2 gm/100 ml, No PDE Inhibitor
[17] = FIG. 3, hornworm larvae nerve cord

T1 sequence (P10608 whole entry): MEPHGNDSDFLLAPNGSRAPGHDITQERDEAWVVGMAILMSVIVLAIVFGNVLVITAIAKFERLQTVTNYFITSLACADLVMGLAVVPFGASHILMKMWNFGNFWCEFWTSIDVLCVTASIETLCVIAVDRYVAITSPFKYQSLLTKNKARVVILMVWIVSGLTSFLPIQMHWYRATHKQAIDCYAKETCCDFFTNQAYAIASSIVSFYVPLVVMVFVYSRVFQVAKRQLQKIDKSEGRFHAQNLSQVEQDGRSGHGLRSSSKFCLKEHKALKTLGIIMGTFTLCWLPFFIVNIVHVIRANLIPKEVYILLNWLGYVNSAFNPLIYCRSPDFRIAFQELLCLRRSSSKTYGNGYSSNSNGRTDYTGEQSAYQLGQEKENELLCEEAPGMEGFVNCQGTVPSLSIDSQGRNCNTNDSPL
T2 sequence (P18901 whole entry): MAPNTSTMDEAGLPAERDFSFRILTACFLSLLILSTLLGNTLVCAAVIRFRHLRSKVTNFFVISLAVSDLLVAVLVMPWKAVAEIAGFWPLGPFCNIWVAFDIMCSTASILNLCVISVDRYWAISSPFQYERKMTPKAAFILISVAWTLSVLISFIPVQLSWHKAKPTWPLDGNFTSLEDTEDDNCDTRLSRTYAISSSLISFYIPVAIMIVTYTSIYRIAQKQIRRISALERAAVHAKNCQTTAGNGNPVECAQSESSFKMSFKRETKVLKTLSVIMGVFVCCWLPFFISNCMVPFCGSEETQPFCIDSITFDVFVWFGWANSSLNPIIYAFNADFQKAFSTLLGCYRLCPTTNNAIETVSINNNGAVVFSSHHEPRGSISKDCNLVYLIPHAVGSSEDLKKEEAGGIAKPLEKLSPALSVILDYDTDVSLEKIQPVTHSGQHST

Compound: CNCC(O)c1ccc(O)cc1 (racemic) [(±)-Nmethyloctopamine]
- Ka^oct/Ka^(1) ratio (column head is drawing 15) [1]: 1.8
- % Leaf Remaining ([2]; Table 4, agonist 1 gm/100 ml, IBMX 0.1 g/100 ml): 90%
- % Leaf Remaining ([2]; Table 4, agonist 1 gm/100 ml, No PDE Inhibitor): 30%
- % Leaf Remaining ([2]; Table 4, agonist 10^-1 gm/100 ml, IBMX 0.1 g/100 ml): 55%
- % Leaf Remaining [2, 9]: < 5%
- % Leaf Remaining ([2]; Table 4, agonist 10^-2 gm/100 ml, IBMX 0.1 g/100 ml): 42%
- % Leaf Remaining [2, 10]: < 5%

Compound: NCC(O)c1cccc(O)c1 (racemic) [(±)-m-octopamine, reference compound]
- Vmax (% OCT) ([1]; Table 1, maximal activation as % of that by (±)-p-octopamine, N.A. = No Activity): 9 ± 1 % OCT
- Ka^oct/Ka^(1) ratio (column head is drawing 15) ([1]; Table 1, ratio greater than 1 = better than (±)-p-octopamine): 0.1
- pesticidal activity [2]: much less pesticidal activity than p-octopamine

Compound: NCC(O)c1ccc(O)cc1 (racemic) [octopamine, reference compound]
- activation of adenylate cyclase in nerve cord [3]: potent activators
- stimulation of adenylate cyclase [4]: neither octopamine nor NC5 were active
- Ki for inhibition of feeding by the larvae [2]: 0.5 mg/leaf
- rank order antifeeding effectiveness [2]: DDCDM+IBMX=NC7+IBMX>Octopamine+IBMX=DDCDM alone>NC7 alone>octopamine alone
- behaviour of larvae feeding on treated leaves [2]: tremors, hyperactivity, and leaf walk-off behavior
- pesticidal activity [2]: little pesticidal activity
- effect of addition of IBMX on antifeeding / pesticidal activity [2]: considerably elevated both cyclic AMP content and pesticidal activity
- stimulation of adenylate cyclase [5]: neither octopamine nor NC5 caused any significant enzyme stimulation
- EC50 for stimulated light emission [6]: about 5 nmoles/tail

Compound: CC(C)NC[C@H](O)c1ccc(O)c(O)c1 [(-)-isoproterenol, reference compound]
- stimulation of adenylate cyclase [4]: potently stimulates

Compound: Cc1cc(Cl)ccc1N=CN [DDCDM, di-demethylchlordimeform, reference compound]
- activation of adenylate cyclase in nerve cord [3]: potent activators
- Cyclic AMP Content (Fold-increase over Control) ([7]; +0.1 mM IBMX): 11.1 ± 2.7 Fold-increase over Control
- Cyclic AMP Content (Fold-increase over Control) ([7]; -IBMX): 5.4 ± 3.8 Fold-increase over Control
- rank order antifeeding effectiveness [2]: DDCDM+IBMX=NC7+IBMX>Octopamine+IBMX=DDCDM alone>NC7 alone>octopamine alone

Compound: Cc1cc(Cl)ccc1N=C1NCCN1 [NC 7, 2-(2-methyl, -4-chlorophenylimino)imidazolidine]
- octopamine potency ratio [1]: 9.8
- Ka ratio to octopamine ([1]; Table 2, clonidines): 9.8
- Vmax (% OCT) ([1]; Table 2, clonidines, N.A. = no activity): 68 % OCT
- activation of adenylate cyclase in nerve cord [3]: potent activators
- Cyclic AMP Content (Fold-increase over Control) ([7]; +0.1 mM IBMX): 13.9 ± 3.0 Fold-increase over Control
- Cyclic AMP Content (Fold-increase over Control) ([7]; -IBMX): 2.2 ± 0.2 Fold-increase over Control
- % Leaf Remaining [2, 11]: 85%
- Ki for inhibition of feeding by the larvae [2]: 0.01 mg/leaf
- rank order antifeeding effectiveness [2]: DDCDM+IBMX=NC7+IBMX>Octopamine+IBMX=DDCDM alone>NC7 alone>octopamine alone
- behaviour of larvae feeding on treated leaves [2]: tremors, hyperactivity, and leaf walk-off behavior
- effect of addition of IBMX on antifeeding / pesticidal activity [2]: substantial increases in the potency

Compound: c1ccc(N=C2NCCN2)cc1 [NC 10]
- % Leaf Remaining [2, 12]: 15%
- % Leaf Remaining [2, 13]: 5%
- % Leaf Remaining [2, 14]: 13%
- % Leaf Remaining [2, 15]: 5%
- % Leaf Remaining [2, 11]: 15%
- % Leaf Remaining [2, 16]: 5%
- % Leaf Remaining ([2]; Table 5, agonist 10^-3 gm/100 ml, IBMX 0.1 g/100 ml): 12%
- % Leaf Remaining ([2]; Table 5, agonist 10^-3 gm/100 ml, No PDE Inhibitor): 5%
- antifeeding activity ([2]; compound itself, in words): lacked antifeeding activity both in the absence or presence of the PDE inhibitor

Compound: Clc1cccc(Cl)c1N=C1NCCN1 [clonidine, reference compound]
- Ka ratio to octopamine [1]: 0.95
- octopamine potency ratio [1]: 0.9
- Vmax (% OCT) ([1]; light organ homogenate): 35 % OCT
- Vmax, % that of octopamine ([1]; light organ homogenate): 35%
- % Leaf Remaining [2, 12]: 63%
- % Leaf Remaining [2, 13]: 65%
- % Leaf Remaining [2, 14]: 55%
- % Leaf Remaining [2, 15]: 20%
- % Leaf Remaining [2, 11]: 55%
- % Leaf Remaining [2, 16]: 5%
- effect of addition of IBMX on antifeeding / pesticidal activity [2]: substantial increases in the potency

- Ka ratio [8]: 0.22
- Vmax [8]: 100%
Compound: C=C[C@@]1(C)CC(=O)[C@]2(O)[C@@]3(C)[C@@H](O)CCC(C)(C)[C@@H]3[C@H](O)[C@H](OC(C)=O)[C@@]2(C)O1 [forskolin]
- Ka ratio [3, 17]: 0.20
- Vmax [3, 17]: about 100%
- antifeeding activity ([2]; compound itself, in words): has antifeeding activity
- effect of addition of IBMX on antifeeding / pesticidal activity [2]: enhanced

Compound: Nc1ncnc2c1nc(Sc1ccc(Cl)cc1)n2[C@@H]1O[C@@H]2COP(=O)(O)O[C@H]2[C@H]1O [p-Cl-phenylthio cyclic AMP, 8-p-chlorophenylthio-cyclic AMP, reference compound]
- antifeeding activity ([2]; concentration of 1%, absence of IBMX): showed antifeeding activity
- effect of addition of IBMX on antifeeding / pesticidal activity [2]: increased by addition of IBMX

Compound: NCC(O)c1ccc(F)cc1 (centres unmarked) [p-fluoro-phenylethanolamine]
- % Leaf Remaining [2, 9]: < 5%
- % Leaf Remaining [2, 10]: < 5%
- % Leaf Remaining ([2]; Table 4, agonist 10^-3 gm/100 ml, IBMX 0.1 g/100 ml): 50%
- % Leaf Remaining ([2]; Table 4, agonist 10^-3 gm/100 ml, No PDE Inhibitor): < 5%

Compound: NCCc1ccccc1 [β-phenylethylamine, reference compound]
- Ka^oct/Ka^(1) ratio (column head is drawing 15) [1]: 0.03
